Test results reported in the NIST ThermoML archive (doi:10.1016/j.jct.2017.03.006).

Assay: molar heat capacity at constant pressure; xn = mol fraction of the nth substance listed
Details: Liquid, Flow calorimetry

Cc1ccc(C)c(C)c1 [1,2,4-trimethylbenzene] + CCC(C)O
molar heat capacity at constant pressure [J/K/mol]
Details	x2 = 0	x2 = 0.1001	x2 = 0.3	x2 = 0.5298	x2 = 0.6001	x2 = 0.7001	x2 = 0.7997	x2 = 0.9001
293.15 K, 100 kPa	216.2	219.6	221.6	223.7	216	213	206.9	200.5
293.15 K, 5000 kPa	215	218.1	220.8	222.1	215.3	211.7	205.2	198.5
293.15 K, 10000 kPa	213.3	217	219.6	220.3	213.9	210.4	203.7	196.8
293.15 K, 15000 kPa	212.5	216.2	219	218.9	213.2	208.5	201.9	195.5
293.15 K, 20000 kPa	210.8	215.2	218.3	217.6	211.7	206.9	200.7	194.6
293.15 K, 25000 kPa	209.8	214.6	217.3	215.9	210.5	205.5	199.7	193.3
313.15 K, 100 kPa	222.5	231.1	235.8	234.2	233.8	232.1	226.9	224.2
313.15 K, 5000 kPa	221.2	230.3	233.7	232.8	232.6	230	224.8	221.1
313.15 K, 10000 kPa	219.6	229.5	232.6	231.9	230.1	227.4	222.4	218.9
313.15 K, 15000 kPa	218.5	228.8	231.1	230.9	229	225.3	220.6	217.3
313.15 K, 20000 kPa	217.7	227.7	229.9	229.6	227.2	223.8	219.3	216
313.15 K, 25000 kPa	217.1	226.4	229.5	228.2	225.6	222.7	218.1	214.1

Cc1ccc(C)c(C)c1 [1,2,4-trimethylbenzene] + CCCCO
molar heat capacity at constant pressure [J/K/mol]
Details	x2 = 0	x2 = 0.1002	x2 = 0.2327	x2 = 0.3969	x2 = 0.53	x2 = 0.637	x2 = 0.7176	x2 = 0.7975	x2 = 0.8594	x2 = 0.9131
293.15 K, 100 kPa	216.2	220	219.5	214	209.9	203.6	197	192.5	186.5	181.9
293.15 K, 5000 kPa	215	219	219	213.4	208.8	203.3	196	191.8	186.3	181.4
293.15 K, 10000 kPa	213.3	217.3	218.1	212.8	207.7	202.4	194.9	190.8	185.1	181.1
293.15 K, 15000 kPa	212.5	216	217.4	212.1	206.3	202	194.2	190.2	184.1	180.7
293.15 K, 20000 kPa	210.8	215.4	216.9	211.3	205.9	201.1	193.3	189.6	183.4	180.3
293.15 K, 25000 kPa	209.8	214.5	216.3	210.3	204.7	199.9	192	188.6	182.4	180
313.15 K, 100 kPa	222.5	230.5	231.1	230	224.9	220.4	214.4	210.3	204.5	200.7
313.15 K, 5000 kPa	221.2	229.4	230.1	228.9	223	218.9	212.6	209.1	203.7	199.4
313.15 K, 10000 kPa	219.6	228.5	229.8	227.4	222.3	217.6	211.5	208.6	203.3	198.8
313.15 K, 15000 kPa	218.5	227.3	228.5	226.4	220.5	216.5	210.2	207.8	202.6	197.7
313.15 K, 20000 kPa	217.7	225.8	227.3	225.4	219.2	215.4	209.3	206.4	202	196.6
313.15 K, 25000 kPa	217.1	225.5	227	224.3	218.4	213.6	208.1	206.1	201.3	196

CCC(C)O (stereo not drawn) [butan-2-ol] + Cc1ccc(C)c(C)c1
molar heat capacity at constant pressure [J/K/mol], x1 = 1
Details	100 kPa	5000 kPa	10000 kPa	15000 kPa	20000 kPa	25000 kPa
293.15 K	189.1	187.1	185.5	185.2	183.6	182.7
313.15 K	214.9	213.1	211.1	209.4	207.2	204.9
